Results on 3 compounds are retold here after US8829014B2, “Thiazole and thiophene analogues, and their use in treating autoimmune diseases and cancers” (Board of Supervisors of Louisiana State University and …, priority 2006, dated 2014).

Marks after values point to notes of the source that are not given here.

Holding throughout (assay type): cell-based
One series concerns ARE from TNF-α. The series is described as follows: ARE screen: luciferase under post-transcriptional control of the ARE from TNF-α in RAW 264.7 cells. The following applies: six concentrations 10 nM-3300 nM, 24 hr (FIG. 10). From the text:
Development of ARE Screen: The regulation of TNF-α and other cytokines that are involved in inflammation and cancer progression occurs, in part, at the post-transcriptional level through an AU-rich element in the 3′ UTR called ARE. The ARE regulates both the stability and the translational efficiency of the mRNA and thus represents a potential target for novel anti-inflammatory molecules. The 3′ UTR from TNF-α, which contains the ARE, was cloned in the proper orientation and used to screen a compound library as reported in reference 55. Briefly, the 3′ UTR was cloned into pMS 110, and both the UTR and parental plasmids were stably transfected into RAW264.7 cells, a macrophage cell line. Individual clones were propagated and tested for luciferase activity. […] The UTR-containing clones responded to LPS by inducing luciferase expression similar to the endogenous increase in TNF-α following LPS stimulation. […] Thus, molecules identified with this screening assay are also useful as anti-cancer agents. By analogy, thalidomide, which has been reported to work in part through posttranscriptional regulation of TNF-α, has been approved for the treatment of multiple myeloma and is now in development for the treatment of cancers.
As in the eIF4E assay, AREs are responsible for post-transcriptional regulation of gene expression, influencing both translation and mRNA stability. […]

For series [1], the system named is Human umbilical vein endothelial cells (HUVEC). Description: LDH release cytotoxicity in HUVEC. The following applies: human, 48 h, 10 μM. On the procedure: Additional compounds have also been tested for their ability to inhibit both TNF-α-induced NF-κB—expression and PMA-induced AP-1 expression. In both tests, the compound was added for 1 h, then the appropriate inducer was added, and luciferase activity was monitored 24 h later. Values were then normalized to the vehicle control, DMSO. Following the initial luciferase screens, studies were conducted to assess the cytotoxicity of the compounds in normal cells such as VSMC, HUVEC, or HPT cells. Human umbilical vein endothelial cells (HUVEC) represent the normal endothelium, vascular smooth muscle cells (VSMC) were represented by cells from the adult rat aorta, and human proximal tubule (HPT) cells represent the normal proximal tubule in vivo. These cells were grown to near confluency in multi-well plates, and were then treated for 48 h with either vehicle (0.1% DMSO) or 10 μM of each drug candidate. Following treatment, the media from the VSMC and HUVEC incubations were removed, and the amount of lactate dehydrogenase (LDH) released into the medium was determined with a commercial kit. LDH is normally confined to the cytosol, and its release represents “leakiness” of the plasma membrane. LDH activity was expressed as % increase over vehicle-treated cells. In another assay of viability, the treated VSMC and HUVEC were removed by trypsinization and treated with trypan blue, a dye that is taken up only by dead cells. The number of both live and dead cells was counted using an automated cell viability analyzer. The % decrease in numbers of viable cells was determined. Toxicity in the treated HPT cells was determined by the ethidium homodimer (EthHD) uptake assay. EthHD is a fluorescent dye that is excluded from live cells, but is taken up by cells that have lost permeability barriers. Inside the cell, EthHD produces a strong fluorescent signal, which is proportional to the number of dead cells. Results were expressed as a % increase in cell death over vehicle-treated cells. The lead compounds were also tested in two pairs of cell lines from either the skin or prostate, one tumorigenic and one non-tumorigenic, to test for any differences in toxicity or heightened sensitivity in the tumorigenic lines. The cells were treated for 48 h with vehicle (0.1% DMSO) or 10 μM of each drug candidate. Following treatment, the viability of the cells was determined by the MTT assay. In this assay, the MTT dye is converted only in viable cells by intracellular enzymes to a colorimetric product that is quantitated by a microplate reader.
For the results in Table 13, cells were grown to near confluency in multi-well plates, then treated for 48 h with either vehicle (0.1% DMSO) or 10 μM of each drug candidate. Following treatment, the media from the VSMC and HUVEC incubations were removed, and the amount of lactate dehydrogenase (LDH) released into the medium was determined with a commercial kit and expressed as a % increase over vehicle-treated cells. HPT toxicity was determined by the ethidium homodimer (EthHD) uptake assay. Inside the cell, EthHD produces a strong fluorescent signal, which is proportional to the amount of cell death, expressed as a % increase in cell death over vehicle-treated cells. The lead compounds were also tested in two pairs of cell lines from the skin or prostate, one tumorigenic and one non-tumorigenic, to test for differing toxicity or heightened sensitivity in the tumorigenic lines. The cells were treated for 48 h with vehicle (0.1% DMSO) or 10 μM of each drug candidate, and the viability of the cells was determined by the MTT assay, expressed as a % decrease in viability compared to vehicle-treated cells. The in vivo inflammation model measured the % inhibition of rat paw edema induced by carageenan injection.
(In general: Release of lactate dehydrogenase indicates damage to the cell membrane.)

The next series concerns FaDu cells. The text has this:
[…]. Values greater than 1.0 indicate activation, and values less than 1.0 indicate inhibition.) The compounds that inhibited luciferase translation might, potentially, act by generally inhibiting translation, by reducing cell numbers through inhibition of growth or by cell toxicity, or specifically by inhibiting highly cap-dependent translation. To analyze any general effects on cell viability, fourteen compounds were selected that altered luciferase activity (including a few that increased activity) to test for any effects on cell number. An MTT assay was used to monitor compounds for inhibition of cell growth and cell toxicity. The compounds were tested once in a six-point dose-response assay starting at 10 nM and increasing to 3.3 μM. FaDu cells were plated in a 96-well plate for 24 hr before addition of the compounds. Each compound was added in each of six concentrations (10 nM, 30 nM, 100 nM, 330 nM, 1000 nM, and 3300 nM), and each concentration was tested in triplicate. In addition, DMSO was used as a control. After incubating for 24 hr, the cell number was measured using the MTT assay.

For `COc1ccc(-n2c(-c3sc(Nc4ccc(Cl)cc4)nc3-c3ccccc3)nc3ccccc3c2=O)cc1` [Example 225, 2-[2-(4-Chloro-phenylamino)-4-phenyl-thiazol-5-yl]-3-(4-methoxyphenyl)-3H-quinazolin-4-one], the “luciferase expression in the presence of ARE” value with ARE from TNF-α is recorded as “substantial dose response”.
Turning to `CNc1nc(C)c(-c2nc3ccccc3c(=O)n2-c2ccc(Cl)cc2)s1` [Example 244, 2-(4-Methyl-2-methylamino-thiazol-5-yl)-3-(4-chloro-phenyl)-3H-quinazolin-4-one], the “LDH release % Increase HUVEC” value in series [1] was 124# %.
With “Bis-[2-(4-Chloro-phenylamino)-4-benzayl-thiazole-5-yl]-methanone [Example 134]”, the “inhibition of cell viability” value in the series on FaDu cells is given as about 20%.
